Results: publication PMC11401813, “Grewiifopenes A–K, bioactive clerodane diterpenoids from Casearia grewiifolia Vent” (Natural Products and Bioprospecting, 2024)
In brackets after ≈: the same amount, converted by molar mass. Like-named read-outs stand apart in the source and are kept apart here.

Assays:
aromatase (CYP19) = target: T1, aromatase (CYP19) (Homo sapiens, UniProt P11511); assay: Aromatase (CYP19) inhibition assay; assay type: biochemical; settings: for inhibition at 12.5 µM: at a concentration of 12.5 µM; for Aromatase inhibitory activity (in words): at the concentration up to 12.15 µM
T1 construct: purchased
T1 sequence (P11511 1-503): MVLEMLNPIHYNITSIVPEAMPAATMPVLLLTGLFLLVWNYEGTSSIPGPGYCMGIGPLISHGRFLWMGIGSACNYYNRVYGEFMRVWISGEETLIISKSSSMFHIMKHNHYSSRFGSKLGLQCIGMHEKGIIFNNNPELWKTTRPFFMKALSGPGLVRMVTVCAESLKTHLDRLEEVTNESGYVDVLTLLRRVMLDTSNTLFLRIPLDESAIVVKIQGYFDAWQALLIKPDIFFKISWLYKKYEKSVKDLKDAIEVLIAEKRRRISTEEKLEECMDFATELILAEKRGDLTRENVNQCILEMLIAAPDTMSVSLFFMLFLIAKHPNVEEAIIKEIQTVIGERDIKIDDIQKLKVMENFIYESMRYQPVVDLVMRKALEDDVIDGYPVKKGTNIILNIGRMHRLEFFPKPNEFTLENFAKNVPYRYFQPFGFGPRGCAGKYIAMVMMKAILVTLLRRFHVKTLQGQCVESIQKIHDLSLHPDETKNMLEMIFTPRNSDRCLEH
Protocol: (§1) In addition, the isolates were also evaluated for their antibacterial activity towards three strains including Bacillus cereus (ATCC 11778), Staphylococcus aureus (ATCC 6538) and Staphylococcus epidermidis (ATCC 12228) using penicillin G and gentamicin as the antibiotic controls (Table 5). […] Finally, the inhibitory activity of aromatase by using a CYP19 screening kit was investigated. The aromatase (also called estrogen synthase) is responsible for converting the non-aromatic ring A of androgens to estrogens, which are related to the proliferation of breast cancer cells.
The aromatase assay used a method previously designed by Stresser and co-workers.

[1] = test system: A549 (lung adenocarcinoma); assay: Cytotoxicity, MTT assay, A549; assay type: cell-based, human; settings: mean ± s.d. (n = 3)
Protocol: (§2) The in vitro cytotoxicity assay toward a panel of human cancer cell lines of several clerodane diterpenoids has been well investigated. Thus, the isolates in adequate amounts were tested against MOLT-3 (acute lymphoblastic leukemia), HuCCA-1 (cholangiocarcinoma), HepG2 (hepatocellular carcinoma), A549 (lung adenocarcinoma), HeLa (cervical carcinoma), and MDA-MB-231 (triple negative breast cancer) cancer cell lines using the MTT and XTT methods. Doxorubicin and etoposide were used as positive controls.
(§3) The MTT (3-(4,5-dimethylthiazol-2-yl)-2,5-diphenyltetrazolium bromide) assay was employed for the cytotoxic evaluation against five human cancer cell lines, including HepG2, A549, MDA-MB-231, HeLa, and HuCCA-1, while the XTT (2,3-bis-(2-methoxy-4-nitro-5-sulphenyl)-(2H)-tetrazolium-5-carboxanilide) method was used for MOLT-3 cancer cell.

[2] = test system: MDA-MB-231 (triple negative breast cancer); assay: Cytotoxicity, MTT assay, MDA-MB-231; assay type: cell-based, human; settings: MTT, mean ± s.d. (n = 3), read-out: IC50, MDA-MB-231
Protocol: as §2, §3

[3] = test system: HeLa (cervical carcinoma); assay: Cytotoxicity, MTT assay, HeLa; assay type: cell-based, human; settings: HeLa cell line, MTT, mean ± s.d. (n = 3); for IC50: read-out: IC50, HeLa
Protocol: as §2, §3

[4] = test system: HuCCA-1 (cholangiocarcinoma); assay: Cytotoxicity, MTT assay, HuCCA-1; assay type: cell-based, human; settings: MTT, mean ± s.d. (n = 3), read-out: IC50, HuCCA-1
Protocol: as §2, §3

[5] = test system: MOLT-3 (acute lymphoblastic leukemia); assay: Cytotoxicity, XTT method, MOLT-3; assay type: cell-based; settings: Homo sapiens; MOLT-3 cell line; XTT; mean ± s.d. (n = 3); read-out: IC50, MOLT-3
Protocol: as §2, §3

[6] = test system: HepG2 (hepatocellular carcinoma); assay: Cytotoxicity, MTT assay, HepG2; assay type: cell-based, human; settings: MTT, mean ± s.d. (n = 3), read-out: IC50, HepG2
Protocol: as §2, §3

[7] = test system: Bacillus cereus (ATCC 11778); assay: Antibacterial broth microdilution (MIC/MBC), B. cereus; assay type: cell-based; settings: Bacillus cereus, ATCC11778
Protocol: as §1
(§4) The tested strains, Staphylococcus aureus (S. aureus) ATCC6538, Staphylococcus epidermidis (S. epidermidis) ATCC12228, and Bacillus cereus (B. cereus) ATCC11778 were obtained from the American Type Culture Collection (ATCC).
(§5) All tested species were grown on Mueller Hinton Agar (MHA) and incubated at 37 °C for 18–24 h. The bacterial colonies suspension in sterile normal saline was diluted until they reached a 1 × 10^6 CFC/mL concentration, which was then compared to the McFarland scale. This step provided a standard bacterial suspension (1 × 10^6 CFU/mL), which was used for the following assays.
(§6) The broth microdilution technique was used for the MIC and MBC determination, which was expressed according to Clinical and Laboratory Standards Institute (CLSI) standard M07 guideline. The compounds were prepared as a stock solution by dissolving in dimethyl sulfoxide (DMSO) with the concentration ranging from 0.195 to 200 µg/mL. DMSO and penicillin G or gentamicin were used as normal and standard drug control. […] Three replicates were performed for each experiment.

[8] = test system: Staphylococcus epidermidis (ATCC 12228); assay: Antibacterial broth microdilution (MIC/MBC), S. epidermidis; assay type: cell-based; settings: ATCC12228
Protocol: as §1, §4, §5, §6

[9] = test system: Staphylococcus aureus (ATCC 6538); assay: Antibacterial broth microdilution (MIC/MBC), S. aureus; assay type: cell-based; settings: ATCC6538
Protocol: as §1, §4, §5, §6

[10] = Homo sapiens, A549, A549 cell line
[11] = Homo sapiens, MDA-MB-231, MDA-MB-231 cell line
[12] = Homo sapiens, HuCC-A1, HuCCA-1 cell line
[13] = Homo sapiens, HepG2, HepG2 cell line

Row | SMILES | inhibition at 12.5 µM (aromatase (CYP19)) | Aromatase inhibitory activity (in words) (aromatase (CYP19)) | MIC [7] | MIC [8] | MIC [9] | IC50 [1, 10] | IC50 [2, 11] | IC50 ([3]; Homo sapiens, HeLa) | IC50 [4, 12] | IC50 [5] | IC50 [6, 13] | MBC [7] | MBC [8] | MBC [9] | IC50, HeLa [3] | IC50 ([1]; A549 cell line) | IC50 ([2]; MDA-MB-231 cell line) | IC50 [3] | IC50 ([4]; HuCCA-1 cell line) | IC50 ([6]; HepG2 cell line)
1 | C=CC(=C)CC[C@]1(C)[C@H](C)C[C@H](OC)[C@@]23C(=C[C@H](OC(=O)[C@@H](C)CC)C[C@@H]12)[C@@H](OC(C)=O)O[C@H]3OC(C)=O [Compound 5, corymbulosin N] | 18% | did not show activity | – | – | – | 5 ± 0.9 µM | 8.7 ± 0.2 µM | 5.6 ± 0.3 µM | 5.3 ± 0.1 µM | 3.4 ± 0.4 µM | 10 ± 0.5 µM | – | – | – | – | – | – | – | – | –
2 | C=CC(=C)CCC1(C)C(C)C(OC(=O)C=Cc2ccc(O)cc2)C(O)C23C(=CC(OC(=O)CC(C)C)CC12)C(OC)OC3OC(C)=O (stereo not drawn) [Compound 13, Grewiifopene F] | – | – | – | – | – | 30.6 ± 3.9 µM | 37 ± 5.1 µM | – | 41.4 ± 6.1 µM | 3.7 ± 1 µM | 44.2 ± 4.4 µM | – | – | – | I^a (Inactive for cytotoxicity with < 50% inhibition at a concentration of 50 µg/mL) | – | – | – | – | –
3 | C=CC(C)=CCC1(C)C(C)C(OC(=O)C=Cc2ccc(O)cc2)C(O)C23C(=CC(OC(=O)CC(C)C)CC12)C(OC(C)=O)OC3OC(C)=O (stereo not drawn) [Compound 18, Grewiifopene K] | – | – | – | – | – | – | – | – | – | – | – | – | – | – | – | 2.2 ± 0.2 µM | 2.5 ± 0.1 µM | 6.1 ± 0.3 µM | 1.6 ± 0.2 µM | 8.9 ± 1.2 µM
4 | C=CC(C)=CCC1(C)C(C)C(OC(=O)C=Cc2ccc(O)cc2)C(O)C23C(=CC(OC(=O)CC(C)C)CC12)C(OC(C)=O)OC3OC(C)=O (stereo not drawn) [Compound 17, Grewiifopene J] | – | – | – | – | – | 2.4 ± 0.2 µM | 2 ± 0.1 µM | – | – | 1 ± 0.1 µM | 7.1 ± 0.2 µM | – | – | – | – | – | – | 2.8 ± 0.03 µM | 0.4 ± 0.03 µM | –

Second part, led by results:

Row | inhibition at 12.5 µM (aromatase (CYP19)) | Aromatase inhibitory activity (in words) (aromatase (CYP19)) | MIC [7] | MIC [8] | MIC [9] | SMILES | IC50 [1, 10] | IC50 [2, 11] | IC50 ([3]; Homo sapiens, HeLa) | IC50 [4, 12] | IC50 [5] | IC50 [6, 13] | MBC [7] | MBC [8] | MBC [9] | IC50, HeLa [3] | IC50 ([1]; A549 cell line) | IC50 ([2]; MDA-MB-231 cell line) | IC50 [3] | IC50 ([4]; HuCCA-1 cell line) | IC50 ([6]; HepG2 cell line)
5 | 0% | did not show activity | – | – | – | C=CC(=C)CC[C@]1(C)[C@H](C)[C@@H](OC(=O)CC(C)C)[C@H](O)[C@@]23C(=C[C@H](OC(=O)CC(C)C)C[C@@H]12)[C@@H](OC(C)=O)O[C@H]3OC(C)=O [Compound 12, Grewiifopene E] | 3.6 ± 0.04 µM | 7.6 ± 0.9 µM | 3.8 ± 0.6 µM | 4.4 ± 0.4 µM | 1.7 ± 0.4 µM | 8.9 ± 0.3 µM | – | – | – | – | – | – | – | – | –
6 | – | – | 3.12 µg/mL (≈ 9.35 µM) | 0.195 µg/mL (≈ 0.583 µM) | 0.00076 µg/mL (≈ 0.00227 µM) | CC1(C)S[C@@H]2[C@H](NC(=O)Cc3ccccc3)C(=O)N2[C@H]1C(=O)O [Penicillin G, reference compound] | – | – | – | – | – | – | 3.12 µg/mL (≈ 9.35 µM) | 1.56 µg/mL (≈ 4.67 µM) | 0.003 µg/mL (≈ 0.00897 µM) | – | – | – | – | – | –
7 | – | – | 0.048 µg/mL (≈ 0.101 µM) | 0.024 µg/mL (≈ 0.0503 µM) | 0.024 µg/mL (≈ 0.0503 µM) | CNC(C)C1CCC(N)C(OC2C(N)CC(N)C(OC3OCC(C)(O)C(NC)C3O)C2O)O1 (stereo not drawn) [Gentamicin, reference compound] | – | – | – | – | – | – | 0.048 µg/mL (≈ 0.101 µM) | 0.024 µg/mL (≈ 0.0503 µM) | 0.024 µg/mL (≈ 0.0503 µM) | – | – | – | – | – | –
8 | – | – | > 200 µg/mL | > 200 µg/mL | > 200 µg/mL | C=CC(C)=CCC1(C)C(C)C(OC(C)=O)C(OC(C)=O)C23C(=CC(OC(=O)CC(C)C)CC12)C(OC(C)=O)OC3OC(C)=O (stereo not drawn) [Compound 15, Grewiifopene H] | 9.2 ± 1.2 µM | 9.1 ± 0.3 µM | 8.8 ± 0.6 µM | 6.6 ± 0.6 µM | 3.1 ± 0.4 µM | 38.5 ± 2.8 µM | > 200 µg/mL | > 200 µg/mL | > 200 µg/mL | – | – | – | – | – | –
